Earlier results as cited in patent US20240325362A1, “NOVEL THERAPEUTIC METHOD FOR ENHANCING MITOCHONDRIAL FUNCTION, TREATING MITOCHONDRIAL DISEASES THEREBY, AND COMPOUNDS USED THEREIN” (STANDIGM INC., priority 2020, published 2024).

Test system: muscle mitochondrial function
Details: clinical study, as an NAD+ precursor

SMILES: Cc1cnc(C(=O)O)c[n+]1[O-] [acipimox]
- effect on muscle mitochondrial function: beneficial effect on muscle mitochondrial function
